These results are taken from patent US8354436B2 (4SC Discovery GmbH, priority 2011, dated 2013).

Common to all, as to type: cell-based
One test has as its system IFN-γ. The test is described as follows: IFN-γ production by PHA-stimulated human PBMC (OptEIA human IFN-g ELISA). The conditions noted are these: PHA-stimulated human PBMC, 48 hours; column C; read-out: IC50 (IFNγ). The method in brief:
(§1)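 Compounds are titrated semilogarithmically for IC50, or tested at 10, 1, 0.1 and 0.01 μM for screening, on healthy-donor PBMC activated with 2 μg/ml PHA. After 48 h, secreted cytokine is measured in supernatant.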
In general terms: ELISA stands for enzyme-linked immunosorbent assay.

The subject of a further test is IL-17FF. The test is described as follows: IL-17FF production by PHA-stimulated human PBMC (human IL-17F ELI-Pair). The following applies: PHA-stimulated human PBMC, 48 hours; column B; read-out: IC50 (IL-17FF). The method in brief: as §1
In test [1] the test system is PBMC from healthy human donors. The test is described as follows: T cell proliferation assay (PHA-stimulated human PBMC, BrdU ELISA). The conditions noted are these: PHA-stimulated human PBMC, 48 hours, column D, read-out: IC50 (Tcell proliferation). In a few lines:
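Proliferation was quantified by BrdU ELISA 48 hours after starting culture of 1×10⁵ human PBMC per well with test compound and 2 μg/ml phytohaemagglutinin. Cells came from healthy donors via Ficoll separation and were kept in RPMI1640 with 10% dialysed heat-inactivated FCS.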

pIC50: −log10 of the molar value. Bounds are passed on as bounds.

As to `O=C(c1c(-c2c(F)cccc2Cl)noc1-c1cnn(-c2cccc(F)c2)c1C(F)(F)F)N1CCCO1` [Example I-118, (3-(2-chloro-6-fluorophenyl)-5-(1-(3-fluorophenyl)-5-(trifluoromethyl)-1H-pyrazol-4-yl)isoxazol-4-yl)(isoxazolidin-2-yl)methanone], the pIC50 (in the test with IFN-γ; with IL-17FF; in test [1]) was 7.00 to 8.00 in each case.
Take `COC(=O)c1c(-c2c(F)cccc2Cl)noc1-c1cnn(-c2cc(C)nc(C)n2)c1C(F)(F)F` [Example I-119, methyl 3-(2-chloro-6-fluorophenyl)-5-(1-(2,6-dimethylpyrimidin-4-yl)-5-(trifluoromethyl)-1H-pyrazol-4-yl)isoxazole-4-carboxylate]: the pIC50 (in the test on IFN-γ; in the test on IL-17FF; in test [1]) was 6.00 to 7.00 in each case.
With `N#Cc1c(-c2c(F)cccc2Cl)noc1-c1cnn(-c2cccc(F)c2)c1C(F)(F)F` [Example I-120, 3-(2-chloro-6-fluorophenyl)-5-(1-(3-fluorophenyl)-5-(trifluoromethyl)-1H-pyrazol-4-yl)isoxazole-4-carbonitrile], the pIC50 (with IFN-γ; with IL-17FF; in test [1]) was 6.00 to 7.00 throughout.
For `NC(=O)c1c(-c2c(F)cccc2Cl)noc1-c1cnn(-c2cccc(Cl)c2)c1C(F)(F)F` [Example I-121, 3-(2-chloro-6-fluorophenyl)-5-(1-(3-chlorophenyl)-5-(trifluoromethyl)-1H-pyrazol-4-yl)isoxazole-4-carboxamide], the pIC50 (in the test on IFN-γ; in the test on IL-17FF; in test [1]) was 5.00 to 6.00 throughout.
Take `CNC(=S)c1c(-c2c(F)cccc2Cl)noc1-c1cnn(-c2cccc(F)c2)c1C(F)(F)F` [Example I-122, 3-(2-chloro-6-fluorophenyl)-5-(1-(3-fluorophenyl)-5-(trifluoromethyl)-1H-pyrazol-4-yl)-N-methylisoxazole-4-carbothioamide]: the pIC50 (in the test on IFN-γ; with IL-17FF; in test [1]) was 6.00 to 7.00 in each case.
As for `NC(=S)c1c(-c2c(F)cccc2Cl)noc1-c1cnn(-c2cccc(Cl)c2)c1C(F)(F)F` [Example I-125, 3-(2-chloro-6-fluorophenyl)-5-(1-(3-chlorophenyl)-5-(trifluoromethyl)-1H-pyrazol-4-yl)isoxazole-4-carbothioamide], the results for the pIC50 (with IFN-γ; in the test with IL-17FF; in test [1]) were 6.00 to 7.00, 6.00 to 7.00 and 5.00 to 6.00, respectively.
On to `O=C(c1c(-c2c(F)cccc2Cl)noc1-c1cnn(-c2cccc(F)c2)c1C(F)(F)F)N1CCOCC1` [Example I-127, (3-(2-chloro-6-fluorophenyl)-5-(1-(3-fluorophenyl)-5-(trifluoromethyl)-1H-pyrazol-4-yl)isoxazol-4-yl)(morpholino)methanone], for which the pIC50 in the test with IFN-γ is 6.00 to 7.00; in the test on IL-17FF it was 6.00 to 7.00; in test [1], 5.00 to 6.00.
For the compound `CSC(=O)c1c(-c2c(F)cccc2Cl)noc1-c1cnn(-c2ccccc2F)c1C(F)(F)F` [Example I-130, S-methyl 3-(2-chloro-6-fluorophenyl)-5-(1-(2-fluorophenyl)-5-(trifluoromethyl)-1H-pyrazol-4-yl)isoxazole-4-carbothioate], the pIC50 (in the test on IFN-γ; with IL-17FF; in test [1]) was > 8.00 each time.
With `O=C(c1c(-c2c(F)cccc2Cl)noc1-c1cnn(-c2cccc(Cl)c2)c1C(F)(F)F)N1CCCO1` [Example I-132, (3-(2-chloro-6-fluorophenyl)-5-(1-(3-chlorophenyl)-5-(trifluoromethyl)-1H-pyrazol-4-yl)isoxazol-4-yl)(isoxazolidin-2-yl)methanone], the pIC50 with IFN-γ was > 8.00; with IL-17FF it was 7.00 to 8.00; in test [1], 7.00 to 8.00.
For `NNC(=O)c1c(-c2c(F)cccc2Cl)noc1-c1cnn(-c2cccc(F)c2)c1C(F)(F)F` [Example I-133, 3-(2-chloro-6-fluorophenyl)-5-(1-(3-fluorophenyl)-5-(trifluoromethyl)-1H-pyrazol-4-yl)isoxazole-4-carbohydrazide], the pIC50 (in the test on IFN-γ; with IL-17FF; in test [1]) was 5.00 to 6.00 in each case.
Turning to `CON(C)C(=O)c1c(-c2c(F)cccc2Cl)noc1-c1cnn(-c2cccc(F)c2)c1C(F)(F)F` [Example I-135, 3-(2-chloro-6-fluorophenyl)-5-(1-(3-fluorophenyl)-5-(trifluoromethyl)-1H-pyrazol-4-yl)-N-methoxy-N-methylisoxazole-4-carboxamide], the pIC50 (in the test with IFN-γ; with IL-17FF; in test [1]) was 6.00 to 7.00 in each case.
Take `CO/C(=N\c1c(-c2c(F)cccc2Cl)noc1-c1cnn(-c2cccc(F)c2)c1C(F)(F)F)C(F)(F)F` [Example I-136, (Z)-methyl N-(3-(2-chloro-6-fluorophenyl)-5-(1-(3-fluorophenyl)-5-(trifluoromethyl)-1H-pyrazol-4-yl)isoxazol-4-yl)-2,2,2-trifluoroacetimidate]: the figures for the pIC50 (in the test with IFN-γ; with IL-17FF; in test [1]) were 7.00 to 8.00, 6.00 to 7.00 and 6.00 to 7.00, respectively.
`Fc1cccc(-n2ncc(-c3onc(-c4c(F)cccc4Cl)c3Br)c2C(F)(F)F)c1` [Example I-137, 4-bromo-3-(2-chloro-6-fluorophenyl)-5-(1-(3-fluorophenyl)-5-(trifluoromethyl)-1H-pyrazol-4-yl)isoxazole]: the pIC50 in the test with IFN-γ was 6.00 to 7.00; in the test with IL-17FF it was 6.00 to 7.00; in test [1] it was 7.00 to 8.00.
Turning to `COC(=O)Nc1c(-c2c(F)cccc2Cl)noc1-c1cnn(-c2cccc(F)c2)c1C(F)(F)F` [Example I-138, methyl 3-(2-chloro-6-fluorophenyl)-5-[1-(3-fluorophenyl)-5-(trifluoromethyl)-1H-pyrazol-4-yl]isoxazol-4-ylcarbamate], the pIC50 (with IFN-γ; with IL-17FF; in test [1]) was 6.00 to 7.00 in each case.
`CC(=O)Nc1c(-c2c(F)cccc2Cl)noc1-c1cnn(-c2cccc(F)c2)c1C(F)(F)F` [Example I-139, N-(3-(2-chloro-6-fluorophenyl)-5-(1-(3-fluorophenyl)-5-(trifluoromethyl)-1H-pyrazol-4-yl)isoxazol-4-yl)acetamide]: the pIC50 (in the test with IFN-γ; with IL-17FF; in test [1]) was 5.00 to 6.00 each time.
`Fc1cccc(Cl)c1-c1noc(-c2cnn(-c3cccc(Cl)c3)c2C(F)(F)F)c1Br` [Example I-140, 4-bromo-3-(2-chloro-6-fluorophenyl)-5-(1-(3-chlorophenyl)-5-(trifluoromethyl)-1H-pyrazol-4-yl)isoxazole]: the pIC50 was > 8.00 in the test on IFN-γ, > 8.00 in the test with IL-17FF and 7.00 to 8.00 in test [1].
Regarding `Fc1cccc(Cl)c1-c1noc(-c2cnn(-c3ccccc3)c2C(F)(F)F)c1Br` [Example I-145, 4-bromo-3-(2-chloro-6-fluorophenyl)-5-(1-phenyl-5-(trifluoromethyl)-1H-pyrazol-4-yl)isoxazole], the pIC50 with IFN-γ was > 8.00; in the test with IL-17FF, 7.00 to 8.00; in test [1], 7.00 to 8.00.
On to `CCOC(=O)c1c(-c2c(F)cccc2Cl)noc1-c1cnn(-c2ccccc2NC(C)=O)c1C(F)(F)F` [IB-1], for which the values for the pIC50 (in the test with IFN-γ; in the test with IL-17FF; in test [1]) were 6.00 to 7.00, 5.00 to 6.00 and 5.00 to 6.00, respectively.
